Laboratory results published in patent publication US9428539B2, “2β,3α,5α-trihydroxy-androst-6-one and preparation methods and use thereof” (Guangzhou Cellprotek Pharmaceutical Co., Ltd., priority 2013, dated 2016).

Columns and labels:
[1] = test system: cerebellar granule neurons; experiment: Glutamate-induced damage of cerebellar granule neurons (FDA staining); format: cell-based; conditions: glutamate 100 μM, glycine 10 μM, Mg2+-free Locke buffer; 30 min pre-incubation; FDA staining after 24 h
Method: Cerebellar granule neurons cultured in vitro for 8 days were grouped. Treatment groups received MK801 or YC-10 at various concentrations, followed by incubation for 30 min. Following that, model group and all treatment groups were replaced with Mg^2+-free Locke buffer, and added with glutamate (100 μM final concentration), Glycine (10 μM final concentration) and drugs at respective concentrations. Cells were incubated at 37° C. for 30 minutes, replaced with original medium, incubated for further 24 h, followed by FDA staining.

retinal ganglion cell [2] = experiment: Optic nerve clamping injury model, retinal ganglion cell death; format: in vivo; conditions: rats; 20 mg/kg via tail vein 20 min before surgery, 2 h post operation, Day 2, Day 3; pathological examination at Day 7
Method: 10% chloral hydrate was used to anesthetize rats. YC-10 (20 mg/kg) or solvents were administered via tail vein 20 min before surgery. Eyes were subject to topical anesthesia. Conjunctiva was cut along limbus cornea with corneal scissors and intraocular microforceps. Lateral rectus was bluntly dissected to fully expose optic nerve. A cross action forceps was used to clamp the optic nerve for 5 seconds at 2 mm posterior to the eyeball, and then released. Antibiotic eye ointment was applied post operation to prevent infection. Drugs were administered at 2 h post operation, Day 2, and Day 3. Eyeballs were obtained for pathological examination at Day 7.

KM mice = experiment: Maximal tolerance dose test; format: in vivo
Method: YC-10 injections at concentration of 25 mg/mL were prepared with 40% hydroxypropyl cyclodextrin, and were injected through tail vein to 30 KM mice (half males and half females, weighted 18-22 g) at does of 0.1 mL/10 g.
The mice were continuously observed. All mice behaved and ate as usual, with bright coat color and fine fur. No abnormal secretions in mouth, eyes, nose, or ears were observed. Mice defecated normally. Mice weights were slighted increase. No mice died. Mice were sacrificed after 14 days, dissected and visual examined on important organs such as heart, liver, spleen, kidney, and gastrointestinal. No abnormal changes were observed.

[3] = test system: cerebellar granule neurons; experiment: Low potassium-induced death of cerebellar granule neurons (FDA staining); format: cell-based; conditions: 50 μM, 5K (5 mM KCl) BME medium, 24 h
Method: Cerebellar granule neurons were cultured in vitro for 8 days. Treatment groups received YC-10 at various concentrations and incubated for 30 min. Following that, model group and all treatment groups were replaced with 5K (i.e., 5 mM KCl) BME medium (25K BME for control group), and added with YC-10 at respective concentrations. Cells were incubated at 37° C. for 24 h, followed by FDA staining.

DBTRG-50MG cells = experiment: MTT cell survival assay, DBTRG-50MG cells; format: cell-based; conditions: 250, 500, 1000 μM, 24 h post treatment, P<0.05 vs control
Method: (§1) Cell seeding and treatment: Logarithmic phase of LN18 and DBTRG-50MG cells were prepared to cell suspensions with complete medium. Cells were seeded into a 96-well plate at a density of 100 μl per well, 3×10^4/ml. 12 h post seeding, full cell adherence was observed. To the wells was added YC-10 to a final concentration of YC-10 being 250, 500, and 1000 μM, with each concentration group having 5 repeats.
(§2) Reaction of MTT with succinate dehydrogenase: At 24th h of culturing, 10 μl (5 mg/ml) of MTT was added to each well, followed by 4 h incubation. At this time, granulate violet formazan crystalline can be observed in live cells by microscopy.
(§3) Formazan particle dissolution: Supernatant was carefully discharged. To the wells was added DMSO at 100 μl/well to dissolve the crystalline. The mixture was vibrated on a mini oscillator for 5 min and measured for optical density (OD value) at 570 nm for each well by enzyme-linked immunometric assay.
(§4) Each group of experiments was repeated 3 times.
(§5) Survival (%)=OD value in treatment group/OD value in control group*100%.
(§6) All data was presented as mean±SD. SPSS 13.0 statistics package software was used. One-Way ANOVA and t-test were used to analyze the data. Sigmaplot software was used to give FIG. 1.

LN18 cells = experiment: MTT cell survival assay, LN18 cells; format: cell-based; conditions: 250, 500, 1000 μM, 24 h post treatment, P<0.05 vs control
Method: as §1, §2, §3, §4, §5, §6

retinal ganglion cell [4] = experiment: Eye high pressure and ischemia injury model, retinal ganglion cell death; format: in vivo; conditions: rats; 20 mg/kg via tail vein before modeling, 2 h, Day 2, Day 3; 130 mmHg, 1 h ischemia; pathological examination at Day 7
Method: 10% chloral hydrate was used to anesthetize rats. Eyes were subject to topical anesthesia. Perfusion apparatus was placed 176 cm above rats' eyeballs (resulting in 130 mmHg intra-ocular pressure). 30 G ½ syringe needle was carefully inserted into anterior chamber. The eyeballs became white and starting time of ischemia was recorded. 1 h post ischemia, the syringe needle was quickly withdrawn and eyes were cared by antibiotic eyedrops. Rats were raised back to cage. Drugs were administered 20 before modeling for solvent group and YC-10 group (20 mg/kg). At 2 h, Day 2 and Day 3 post modeling, rats were treated with YC-10 via tail vein. At Day 7 post modeling, eyeballs were obtained for pathological examination.

Structure (SMILES) | protection of cerebellar granule neurons from glutamate-induced damage [1] | protection of retinal ganglion cell from optic nerve clamping injury-induced death (retinal ganglion cell [2]) | toxicity to mouse (behaviour, weight, organ examination) (KM mice; 250 mg/kg tail vein injection in 40% hydroxypropyl cyclodextrin, observed 14 days) | mortality (KM mice; 250 mg/kg tail vein injection, 14 days) | protection of cerebellar granule neurons from low potassium-induced death [3] | cell survival rate (tumor cell killing) (DBTRG-50MG cells) | cell survival rate (tumor cell killing) (LN18 cells) | protection of retinal ganglion cell from eye high pressure and ischemia-induced death (retinal ganglion cell [4])
C[C@]12N[C@H](Cc3ccccc31)c1ccccc12 [MK801, reference compound] | able to prevent cerebella granule neurons from glutamate-induced injury |  |  |  |  |  |  | 
C[C@@]12CCCC1C1CC(=O)[C@@]3(O)C[C@H](O)[C@@H](O)C[C@]3(C)C1CC2 (stereo partly drawn) [YC-10, 2β,3α,5α-trihydroxy-androst-6-one] | effective in preventing glutamate-induced excitotoxin damage of cerebellar granule neurons in a dose-dependent manner | slow down or prevent from clamping injury-induced death | nontoxic | No mice died | could prevent neuron from low potassium-induced death | killed tumor cells in a dose-dependent manner | killed tumor cells in a dose-dependent manner | reduce or prevent from ischemia-induced death
